From US20250195537A1, “PSYCHEDELIC DRUG TREATMENT OF NEUROPSYCHIATRIC DISORDERS AND CEREBRAL PALSY” (priority 2021, published 2025)

Tests used:
[1] = Case reports: patients with depression given ketamine with or without an anxiolytic; type: in vivo, human
[2] = Case report: patient with depression and suicidal ideation given ketamine with or without intranasal oxytocin; type: in vivo, human
[3] = Case report: patient with muscle spasm associated with cerebral palsy given intramuscular ketamine; type: in vivo, human; settings: intramuscular ketamine 0.2-1.2 mg/kg
[4] = cited from earlier work
[5] = ketamine infusions, benzodiazepine users, Albott et al., 2017

Cc1nnc2n1-c1ccc(Cl)cc1C(c1ccccc1)=NC2 [alprazolam]
improvement in depression ([1]; same patient, 0.5 mg alprazolam before the same dose of ketamine): significant improvement in depression

CC[C@H](C)[C@@H]1NC(=O)[C@H](Cc2ccc(O)cc2)NC(=O)[C@@H](N)CSSC[C@@H](C(=O)N2CCC[C@H]2C(=O)N[C@@H](CC(C)C)C(=O)NCC(N)=O)NC(=O)[C@H](CC(N)=O)NC(=O)[C@H](CCC(N)=O)NC1=O [oxytocin]
severity of depression and suicidal ideation ([2]; same patient, oxytocin 40 IU intranasally 30 minutes before ketamine in same dose range): reduced severity of depression and suicidal ideation

O=C1Nc2ccc(Cl)cc2C(c2ccccc2Cl)=NC1O (centres unmarked) [lorazepam]
antidepressant effect ([1]; patient with depression, 1 mg lorazepam prior to ketamine, several treatments): experienced an antidepressant effect

CNC1(c2ccccc2Cl)CCCCC1=O (centres unmarked) [ketamine]
therapeutic benefit ([1]; patient with depression, ketamine alone): did not benefit therapeutically
antidepressant effect ([1]; same patient, ketamine without lorazepam, compared to times with lorazepam): reduced antidepressant effect
muscle spasm after the treatment [3]: reduction in their muscle spasm
improvement in depression or suicidal ideation ([2]; ketamine alone, several times, intramuscular 0.25-1.0 mg/kg): did not experience improvement
antidepressant effect of ketamine ([4]; concomitant use of benzodiazepines, Andrashko et al., 2020): dampened the antidepressant effect
time to antidepressant response [4, 5]: significantly longer
time to depression relapse [4, 5]: significantly shorter
antidepressant response to ketamine infusions ([4]; one patient, after their benzodiazepine was withdrawn, Ford et al. (2015)): more robust
